# According to ChEMBL document CHEMBL2176989, “Design, synthesis, and pharmacological evaluation of piperidin-4-yl amino aryl sulfonamides: novel, potent, selective, orally active, and brain penetrant 5-HT₆ receptor antagonists” (J Med Chem, 2012):
# Calls of active or inactive are those of the source. The rule behind the calls is not given here.
# How the values were obtained:
# [1] = Oral bioavailability in fasted Wistar rat at 10 mg/kg; format: ADME, organism-based; settings: in vivo
# [2] = Drug metabolism in human liver microsomes at 2.5 uM at 30 mins by LC-MS/MS analysis; format: ADME, Microsome; settings: read-out: Drug metabolism
# [3] = Tmax in fasted Wistar rat at 10 mg/kg, po; format: ADME, organism-based; parameters: dose 10 mg/kg, route oral; settings: in vivo
# [4] = target: 5-hydroxytryptamine receptor 4 (Homo sapiens, UniProt Q13639); experiment: Binding affinity to 5HT4 receptor
# 5-hydroxytryptamine receptor 4, sequence (Q13639 whole entry): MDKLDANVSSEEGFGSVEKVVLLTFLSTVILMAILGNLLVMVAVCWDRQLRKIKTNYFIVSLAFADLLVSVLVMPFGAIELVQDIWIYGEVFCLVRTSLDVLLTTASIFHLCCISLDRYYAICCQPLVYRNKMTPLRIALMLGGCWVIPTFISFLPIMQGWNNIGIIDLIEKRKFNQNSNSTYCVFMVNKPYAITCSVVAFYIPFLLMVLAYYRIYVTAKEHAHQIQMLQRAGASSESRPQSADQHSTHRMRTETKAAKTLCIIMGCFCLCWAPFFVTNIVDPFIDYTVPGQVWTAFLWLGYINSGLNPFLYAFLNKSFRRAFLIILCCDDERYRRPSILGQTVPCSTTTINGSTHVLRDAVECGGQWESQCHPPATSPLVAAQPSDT
# [5] = target: 5-hydroxytryptamine receptor 6 (Homo sapiens) (UniProt P50406); experiment: Antagonist activity at human recombinant 5HT6 receptor expressed in CHO cells assessed as inhibition of 5HT-induced luciferase activity after 4 hrs by reporter gene assay; format: functional, cell-based
# 5-hydroxytryptamine receptor 6 (Homo sapiens), sequence (P50406 whole entry): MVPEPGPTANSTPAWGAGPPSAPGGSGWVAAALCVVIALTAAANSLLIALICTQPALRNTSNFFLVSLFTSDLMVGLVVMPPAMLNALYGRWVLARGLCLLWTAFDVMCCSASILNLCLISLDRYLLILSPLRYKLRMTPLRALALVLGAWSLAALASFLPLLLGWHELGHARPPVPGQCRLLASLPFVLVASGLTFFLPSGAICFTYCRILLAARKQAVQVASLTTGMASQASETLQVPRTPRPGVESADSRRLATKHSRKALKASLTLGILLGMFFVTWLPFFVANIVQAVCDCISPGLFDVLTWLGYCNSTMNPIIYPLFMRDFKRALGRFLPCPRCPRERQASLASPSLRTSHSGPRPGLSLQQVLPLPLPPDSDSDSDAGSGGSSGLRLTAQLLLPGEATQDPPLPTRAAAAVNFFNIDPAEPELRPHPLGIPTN
# [6] = target: T1, 5-hydroxytryptamine receptor 3A (Homo sapiens, UniProt P46098); experiment: Binding affinity to 5HT3 receptor
# T1 sequence (P46098 whole entry): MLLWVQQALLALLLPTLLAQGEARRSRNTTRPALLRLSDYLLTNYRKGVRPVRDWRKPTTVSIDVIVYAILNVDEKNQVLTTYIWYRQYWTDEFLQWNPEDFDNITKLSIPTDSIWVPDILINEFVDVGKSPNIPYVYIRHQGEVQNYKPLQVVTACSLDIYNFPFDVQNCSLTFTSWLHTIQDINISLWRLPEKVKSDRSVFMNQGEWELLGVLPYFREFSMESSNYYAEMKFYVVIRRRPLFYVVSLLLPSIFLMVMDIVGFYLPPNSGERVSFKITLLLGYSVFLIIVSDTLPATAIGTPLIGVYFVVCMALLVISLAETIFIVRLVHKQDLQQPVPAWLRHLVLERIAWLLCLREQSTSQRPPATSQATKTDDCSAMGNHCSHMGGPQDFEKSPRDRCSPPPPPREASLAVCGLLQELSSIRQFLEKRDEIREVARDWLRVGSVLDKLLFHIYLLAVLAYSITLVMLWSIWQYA
# Rattus norvegicus [7] = experiment: Procognitive activity in Wistar rat assessed as reversal of time delay induced-memory deficit at 1 mg/kg, po by object recognition test; format: functional, organism-based; parameters: dose 1 mg/kg
# [8] = target: Sodium-dependent dopamine transporter (Homo sapiens, UniProt Q01959); experiment: Binding affinity to dopamine transporter
# Sodium-dependent dopamine transporter, sequence (Q01959 whole entry): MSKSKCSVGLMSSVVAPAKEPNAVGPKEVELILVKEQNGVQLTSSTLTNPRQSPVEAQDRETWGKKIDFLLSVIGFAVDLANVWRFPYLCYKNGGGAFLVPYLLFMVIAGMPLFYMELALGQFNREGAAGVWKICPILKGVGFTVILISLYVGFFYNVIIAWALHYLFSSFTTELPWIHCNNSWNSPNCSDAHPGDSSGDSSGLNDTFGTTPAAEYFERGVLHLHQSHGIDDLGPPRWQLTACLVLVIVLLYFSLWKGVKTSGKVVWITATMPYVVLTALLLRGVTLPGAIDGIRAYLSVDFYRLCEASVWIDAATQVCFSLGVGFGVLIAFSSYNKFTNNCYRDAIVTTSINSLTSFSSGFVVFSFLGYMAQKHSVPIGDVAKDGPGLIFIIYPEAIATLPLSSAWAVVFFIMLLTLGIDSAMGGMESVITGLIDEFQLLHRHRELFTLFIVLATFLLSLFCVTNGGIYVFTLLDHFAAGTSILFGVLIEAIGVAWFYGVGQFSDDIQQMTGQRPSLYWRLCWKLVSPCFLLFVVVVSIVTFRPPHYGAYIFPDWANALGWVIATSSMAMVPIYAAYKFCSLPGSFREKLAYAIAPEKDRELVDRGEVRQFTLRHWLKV
# [9] = target: 5-hydroxytryptamine receptor 2A (Homo sapiens, UniProt P28223); experiment: Binding affinity to 5HT2A receptor
# 5-hydroxytryptamine receptor 2A, sequence (P28223 whole entry): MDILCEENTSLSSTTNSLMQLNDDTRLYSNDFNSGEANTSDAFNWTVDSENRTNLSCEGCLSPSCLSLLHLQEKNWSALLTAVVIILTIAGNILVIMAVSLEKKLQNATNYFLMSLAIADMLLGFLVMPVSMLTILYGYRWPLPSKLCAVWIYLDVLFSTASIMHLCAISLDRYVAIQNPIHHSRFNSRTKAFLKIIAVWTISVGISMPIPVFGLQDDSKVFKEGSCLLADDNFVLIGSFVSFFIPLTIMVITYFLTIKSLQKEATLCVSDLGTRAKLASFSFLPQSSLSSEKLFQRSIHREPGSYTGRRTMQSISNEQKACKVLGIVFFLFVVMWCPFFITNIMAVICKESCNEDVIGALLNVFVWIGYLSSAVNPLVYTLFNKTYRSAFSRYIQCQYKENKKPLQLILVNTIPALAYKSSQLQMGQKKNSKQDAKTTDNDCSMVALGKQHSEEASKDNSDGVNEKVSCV
# [10] = target: T2, 5-hydroxytryptamine receptor 2C (Homo sapiens, UniProt P28335); experiment: Binding affinity to 5HT2C receptor
# T2 sequence (P28335 whole entry): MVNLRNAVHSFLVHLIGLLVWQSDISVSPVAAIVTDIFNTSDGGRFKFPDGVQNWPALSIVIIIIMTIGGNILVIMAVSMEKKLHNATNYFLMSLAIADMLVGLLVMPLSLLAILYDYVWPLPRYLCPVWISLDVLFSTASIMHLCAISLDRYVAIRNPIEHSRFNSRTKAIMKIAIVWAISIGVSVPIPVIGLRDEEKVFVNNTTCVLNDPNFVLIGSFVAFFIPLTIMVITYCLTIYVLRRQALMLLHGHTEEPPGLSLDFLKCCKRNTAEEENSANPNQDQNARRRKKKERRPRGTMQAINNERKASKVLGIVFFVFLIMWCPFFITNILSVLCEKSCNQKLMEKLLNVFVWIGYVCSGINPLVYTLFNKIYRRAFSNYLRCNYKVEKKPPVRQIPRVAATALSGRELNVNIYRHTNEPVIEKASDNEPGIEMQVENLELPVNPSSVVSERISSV
# D(2) dopamine receptor = D(2) dopamine receptor (Homo sapiens, UniProt P14416); experiment: Binding affinity to dopamine D2 receptor
# D(2) dopamine receptor, sequence (P14416 whole entry): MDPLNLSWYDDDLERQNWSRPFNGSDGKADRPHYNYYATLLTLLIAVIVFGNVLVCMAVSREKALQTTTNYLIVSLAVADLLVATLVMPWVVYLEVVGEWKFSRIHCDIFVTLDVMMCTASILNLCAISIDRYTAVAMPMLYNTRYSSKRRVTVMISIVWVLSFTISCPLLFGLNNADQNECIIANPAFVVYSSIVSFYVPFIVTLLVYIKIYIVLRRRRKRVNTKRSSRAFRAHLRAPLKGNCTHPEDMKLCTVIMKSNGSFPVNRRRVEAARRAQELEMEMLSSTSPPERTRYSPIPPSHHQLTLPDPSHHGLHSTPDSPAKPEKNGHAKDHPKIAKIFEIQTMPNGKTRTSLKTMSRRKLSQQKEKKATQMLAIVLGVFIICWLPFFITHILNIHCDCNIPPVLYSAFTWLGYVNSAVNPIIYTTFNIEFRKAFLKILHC
# Rattus norvegicus [11] = experiment: Procognitive activity in Wistar rat assessed as reversal of time delay induced-memory deficit at 3 mg/kg, po by object recognition test; format: functional, organism-based; parameters: dose 3 mg/kg
# [12] = Half life in Wistar rat at 10 mg/kg, iv; format: ADME, organism-based; parameters: dose 10 mg/kg, route intravenous; settings: in vivo
# [13] = target: T3, 5-hydroxytryptamine receptor 1A (Homo sapiens, UniProt P08908); experiment: Binding affinity to 5HT1A receptor
# T3 sequence (P08908 whole entry): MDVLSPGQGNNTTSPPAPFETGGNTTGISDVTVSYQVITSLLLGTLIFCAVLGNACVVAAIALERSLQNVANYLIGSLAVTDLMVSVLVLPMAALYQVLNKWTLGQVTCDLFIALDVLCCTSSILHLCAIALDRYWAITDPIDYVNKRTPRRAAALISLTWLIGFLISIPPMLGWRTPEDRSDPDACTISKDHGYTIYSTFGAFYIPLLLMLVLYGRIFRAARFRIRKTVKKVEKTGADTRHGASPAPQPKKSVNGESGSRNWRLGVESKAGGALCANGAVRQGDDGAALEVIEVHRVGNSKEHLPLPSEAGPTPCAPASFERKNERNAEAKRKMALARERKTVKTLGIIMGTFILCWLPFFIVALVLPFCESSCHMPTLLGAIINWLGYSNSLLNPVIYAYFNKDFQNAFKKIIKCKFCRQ
# [14] = target: T4, Alpha-1B adrenergic receptor (Homo sapiens, UniProt P35368); experiment: Binding affinity to adrenergic alpha1B receptor
# T4 sequence (P35368 whole entry): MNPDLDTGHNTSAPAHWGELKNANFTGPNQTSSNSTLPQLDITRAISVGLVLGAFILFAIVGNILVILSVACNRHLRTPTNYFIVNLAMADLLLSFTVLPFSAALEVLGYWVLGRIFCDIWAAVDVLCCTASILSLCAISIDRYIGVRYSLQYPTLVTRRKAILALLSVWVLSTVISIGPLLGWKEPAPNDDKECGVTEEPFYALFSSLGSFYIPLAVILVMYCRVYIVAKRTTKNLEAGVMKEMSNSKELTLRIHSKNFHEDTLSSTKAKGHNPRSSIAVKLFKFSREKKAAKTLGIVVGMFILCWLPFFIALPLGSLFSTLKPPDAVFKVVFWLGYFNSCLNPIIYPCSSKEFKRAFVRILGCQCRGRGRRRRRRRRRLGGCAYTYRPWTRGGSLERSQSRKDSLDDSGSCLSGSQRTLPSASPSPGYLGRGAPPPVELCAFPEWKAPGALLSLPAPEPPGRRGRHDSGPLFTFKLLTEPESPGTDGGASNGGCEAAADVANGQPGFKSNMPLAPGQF
# [15] = AUC (0 to 24 hrs) in Wistar rat at 10 mg/kg, iv; format: ADME, organism-based; parameters: time < 24 hr, dose 10 mg/kg, route intravenous; settings: plasma
# [16] = target: Voltage-gated inwardly rectifying potassium channel KCNH2 (Homo sapiens, UniProt Q12809); experiment: Displacement of [3H]astemizole from human ERG by microbeta scintillation counting
# Voltage-gated inwardly rectifying potassium channel KCNH2, sequence (Q12809 whole entry): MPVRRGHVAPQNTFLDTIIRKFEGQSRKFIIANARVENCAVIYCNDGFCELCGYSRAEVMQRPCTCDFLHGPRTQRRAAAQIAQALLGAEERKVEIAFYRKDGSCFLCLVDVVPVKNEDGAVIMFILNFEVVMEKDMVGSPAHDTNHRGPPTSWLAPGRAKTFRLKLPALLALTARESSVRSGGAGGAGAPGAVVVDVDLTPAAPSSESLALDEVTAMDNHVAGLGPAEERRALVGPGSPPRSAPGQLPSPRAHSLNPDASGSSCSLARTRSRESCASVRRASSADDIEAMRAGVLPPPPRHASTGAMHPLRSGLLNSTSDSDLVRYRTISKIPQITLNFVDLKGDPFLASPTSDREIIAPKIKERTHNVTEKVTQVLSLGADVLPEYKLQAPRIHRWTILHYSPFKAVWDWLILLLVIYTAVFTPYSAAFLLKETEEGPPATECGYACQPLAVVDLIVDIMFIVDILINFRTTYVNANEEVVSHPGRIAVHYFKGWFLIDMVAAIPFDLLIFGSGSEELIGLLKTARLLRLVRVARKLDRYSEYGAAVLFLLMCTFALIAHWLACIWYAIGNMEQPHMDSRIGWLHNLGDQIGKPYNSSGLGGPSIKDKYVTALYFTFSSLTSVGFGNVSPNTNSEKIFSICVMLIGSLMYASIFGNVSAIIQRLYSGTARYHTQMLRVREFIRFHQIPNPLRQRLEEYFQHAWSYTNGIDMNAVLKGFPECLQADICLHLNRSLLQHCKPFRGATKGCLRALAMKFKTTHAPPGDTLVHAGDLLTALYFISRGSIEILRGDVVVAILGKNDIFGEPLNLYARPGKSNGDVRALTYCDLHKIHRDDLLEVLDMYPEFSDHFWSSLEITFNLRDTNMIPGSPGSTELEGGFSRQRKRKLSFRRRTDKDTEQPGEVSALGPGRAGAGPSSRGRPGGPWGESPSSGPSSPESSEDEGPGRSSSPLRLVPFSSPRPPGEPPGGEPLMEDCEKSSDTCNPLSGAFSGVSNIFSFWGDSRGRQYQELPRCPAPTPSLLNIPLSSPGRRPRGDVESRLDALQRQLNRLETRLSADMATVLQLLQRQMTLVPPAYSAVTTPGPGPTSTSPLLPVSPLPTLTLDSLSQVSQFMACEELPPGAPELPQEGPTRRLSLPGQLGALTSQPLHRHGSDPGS
# [17] = Apparent volume of distribution in Wistar rat at 10 mg/kg, iv; format: ADME, organism-based; parameters: dose 10 mg/kg, route intravenous; settings: in vivo, read-out: Vz
# [18] = Cmax in fasted Wistar rat at 10 mg/kg, po; format: ADME, organism-based; parameters: dose 10 mg/kg, route oral; settings: in vivo
# [19] = target: Sodium-dependent serotonin transporter (Homo sapiens, UniProt P31645); experiment: Binding affinity to SERT
# Cytochrome P450 2D6 = Cytochrome P450 2D6 (Homo sapiens, UniProt P10635); experiment: Inhibition of CYP2D6 in human liver microsomes using dextromethorphan as substrate after 10 mins by LC-MS/MS analysis in presence of NADPH
# Cytochrome P450 2D6, sequence (P10635 whole entry): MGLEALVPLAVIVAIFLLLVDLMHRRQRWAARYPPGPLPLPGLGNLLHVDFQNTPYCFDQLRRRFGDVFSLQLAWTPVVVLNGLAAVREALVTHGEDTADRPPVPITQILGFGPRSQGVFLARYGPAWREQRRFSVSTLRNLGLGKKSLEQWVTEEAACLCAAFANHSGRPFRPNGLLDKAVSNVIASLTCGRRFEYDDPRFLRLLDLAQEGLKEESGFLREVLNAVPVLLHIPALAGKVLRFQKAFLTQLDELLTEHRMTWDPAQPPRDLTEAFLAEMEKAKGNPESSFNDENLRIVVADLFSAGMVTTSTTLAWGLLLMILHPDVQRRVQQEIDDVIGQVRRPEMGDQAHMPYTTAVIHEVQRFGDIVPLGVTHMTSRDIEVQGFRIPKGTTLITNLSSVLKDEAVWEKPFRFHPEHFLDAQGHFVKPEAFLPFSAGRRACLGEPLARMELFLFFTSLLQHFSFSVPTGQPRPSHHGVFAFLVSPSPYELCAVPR
# [20] = Ratio of drug uptake in brain to plasma in Wistar rat at 10 mg/kg, po after 1 hr; format: ADME, organism-based; parameters: dose 10 mg/kg, route oral; settings: read-out: BPR
# [21] = target: 5-hydroxytryptamine receptor 7 (Homo sapiens, UniProt P34969); experiment: Binding affinity to 5HT7 receptor
# 5-hydroxytryptamine receptor 7, sequence (P34969 whole entry): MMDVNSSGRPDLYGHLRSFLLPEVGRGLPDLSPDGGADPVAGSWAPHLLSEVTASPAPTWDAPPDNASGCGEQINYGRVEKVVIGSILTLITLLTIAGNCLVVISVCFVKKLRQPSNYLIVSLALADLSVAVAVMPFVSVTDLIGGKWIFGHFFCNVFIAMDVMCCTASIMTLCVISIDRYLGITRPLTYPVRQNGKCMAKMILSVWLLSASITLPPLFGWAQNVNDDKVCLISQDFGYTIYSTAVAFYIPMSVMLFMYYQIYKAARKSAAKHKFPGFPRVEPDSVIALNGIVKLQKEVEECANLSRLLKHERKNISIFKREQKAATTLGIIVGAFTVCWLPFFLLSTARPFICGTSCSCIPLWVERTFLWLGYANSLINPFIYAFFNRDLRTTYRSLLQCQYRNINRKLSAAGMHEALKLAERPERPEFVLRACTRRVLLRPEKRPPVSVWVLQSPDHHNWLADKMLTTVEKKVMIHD
# [22] = Clearance in Wistar rat at 10 mg/kg, iv; format: ADME, organism-based; parameters: dose 10 mg/kg, route intravenous; settings: in vivo
# Rattus norvegicus [23] = experiment: Toxicity in po dosed Wistar rat assessed as phospholipidosis in multiple organs administered as repeated dose for 7 days; format: organism-based; settings: in vivo, 168 h
# [24] = target: 5-hydroxytryptamine receptor 6 (Homo sapiens) (UniProt P50406); experiment: Antagonist activity at human recombinant 5HT6 receptor expressed in CHO cells assessed as inhibition of 5HT-induced luciferase activity after 4 hrs by reporter gene assay relative to control; format: functional, cell-based
# Cytochrome P450 3A4 = Cytochrome P450 3A4 (Homo sapiens, UniProt P08684); experiment: Inhibition of CYP3A4 in human liver microsomes using midazolam as substrate after 5 mins by LC-MS/MS analysis in presence of NADPH
# Cytochrome P450 3A4, sequence (P08684 whole entry): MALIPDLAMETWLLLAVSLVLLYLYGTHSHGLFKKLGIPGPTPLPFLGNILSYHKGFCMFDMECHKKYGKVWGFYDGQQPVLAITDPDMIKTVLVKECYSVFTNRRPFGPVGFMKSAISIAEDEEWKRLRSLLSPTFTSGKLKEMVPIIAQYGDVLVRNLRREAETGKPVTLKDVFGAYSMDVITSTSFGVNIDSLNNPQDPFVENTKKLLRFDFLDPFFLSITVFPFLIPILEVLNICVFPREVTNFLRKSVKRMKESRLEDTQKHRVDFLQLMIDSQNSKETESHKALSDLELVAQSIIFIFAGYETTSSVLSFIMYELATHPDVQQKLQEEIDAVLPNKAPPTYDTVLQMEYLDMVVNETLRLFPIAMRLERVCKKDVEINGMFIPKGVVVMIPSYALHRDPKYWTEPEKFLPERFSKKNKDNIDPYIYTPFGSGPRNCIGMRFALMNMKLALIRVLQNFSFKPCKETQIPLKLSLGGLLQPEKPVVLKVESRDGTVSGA
# [25] = AUC (0 to 24 hrs) in fasted Wistar rat at 10 mg/kg, po; format: ADME, organism-based; parameters: time < 24 hr, dose 10 mg/kg, route oral; settings: plasma
# Histamine H1 receptor = Histamine H1 receptor (Homo sapiens, UniProt P35367); experiment: Binding affinity to histamine H1 receptor
# [26] = Drug metabolism in Wistar rat liver microsomes at 2.5 uM at 30 mins by LC-MS/MS analysis; format: ADME, Microsome; settings: read-out: Drug metabolism
smiles,measurement,setting,value
COc1ccc(S(=O)(=O)n2cc(C)c3cc(Cl)ccc32)cc1NC1CCN(C)CC1,bioavailability,[1],75%
same,"metabolised at 0.5 h, 2.5 µM",[2],0%
same,Tmax,[3],1.67 h
same,EC50,[4],> 10000 nM
same,Kb,[5],0.02 nM
same,IC50,[6],> 10000 nM
same,Activity,Rattus norvegicus [7],Active
same,Ki,[8],2900 nM
same,Ki,[9],536 nM
same,Ki,[10],3120 nM
same,Ki,D(2) dopamine receptor,303 nM
same,Activity,Rattus norvegicus [11],Active
same,half-life,[12],2.2 h
same,EC50,[13],> 1000 nM
same,Ki,[14],955 nM
same,AUC(0-t) at 24 h,[15],2760 ng·h/mL
same,Ki,[16],800 nM
same,Vd,[17],11 L/kg
same,Cmax,[18],296 ng/mL
same,Ki,[19],1940 nM
same,IC50,Cytochrome P450 2D6,14700 nM
same,Kp at 1 h,[20],3.8
same,Ki,[21],6370 nM
same,clearance,[22],59 mL/min/kg
same,Activity,Rattus norvegicus [23],Toxic
same,Imax,[24],100%
same,IC50,Cytochrome P450 3A4,6460 nM
same,AUC(0-t) at 24 h,[25],2090 ng·h/mL
same,Ki,Histamine H1 receptor,682 nM
same,"metabolised at 0.5 h, 2.5 µM",[26],40%
